In patent US9446267B2, “Products comprising a flavoring agent composition” (SYMRISE AG, priority 2009, dated 2016):
Where two headings read alike, the source gives them in different places.

Tests used:
[1] = cited from earlier work
Solubility of WS-12 = assay type: physicochemical; conditions: in words
Excerpt: In order to bring about the masking of the menthol to a sufficient extent, WS-12 must be dissolved in the flavoring agent composition of the teeth cleaning compound in a sufficient quantity. Our own preliminary investigations have shown that in certain conventional flavoring agent compositions the solubility of the WS-12 is so low that only an insufficient masking (reduction or decrease) in the negative taste impressions of the menthol can be achieved.

[2] = Sensorial assessment of the bitter-sharp note of menthol in toothpaste by a panel of trained experts; assay type: in vivo; conditions: for bitter-sharp note of the menthol / bitter perception: flavoring agent composition at 1.2 wt. % in toothpaste, usage conditions, expert panel
Experimental: The flavoring agent compositions obtained in this way were in each case incorporated into a respective standard toothpaste mass with a silicic acid basis in a concentration of 1.2 wt. %, in relation to the overall weight of the resulting toothpaste. The toothpastes were tested by a panel of sensorially trained experts under usage conditions. […] Without the use of anethole in the 2nd formulation the bitter-sharp note clearly emerged and the taste result was perceived overall to be unacceptable.
The flavoring agent compositions obtained in this way were in each case incorporated into a respective standard toothpaste mass with a silicic acid basis in a concentration of 1.2 wt. %, in relation to the overall weight of the resulting toothpaste. The toothpastes were tested by a panel of sensorially trained experts under usage conditions.
(§1) The toothpaste prepared in this way was tested by a panel of sensorially trained experts under usage conditions and compared with the toothpaste containing menthane carboxylic acid-N-(4-methoxyphenyl)-amide (WS-12) according to the 1st formulation of Example 1.2 in respect of the bitter perception and the duration of the cooling sensation of freshness.
The flavoring agent composition obtained in this way was incorporated into a standard toothpaste mass with a silicic acid base in a concentration of 1.2 wt. %, in relation to the overall weight of the resulting toothpaste. The toothpaste was tested by a panel of sensorially trained experts under usage conditions. […] Since through the use of menthane carboxylic acid-N-(4-methoxyphenyl)-amide (WS-12) in combination with the further flavoring agents with a log-Kow value in the range of 1.5-5 (I-menthyl acetate, 1,8-cineole, cinnamaldehyde, and abovementioned corresponding proportions of peppermint oils) a strong reduction in bitterness (of the menthol) was achieved, it was advantageously possible to dispense with the use of anethole to reduce the bitterness. Apart from a pleasant, distinctly fresh, long-lasting taste impression, the toothpaste was also able to impart a distinct, sweet cinnamon note as a result of the proportion of cinnamaldehyde.
The flavoring agent compositions according to Example 4.1 (for a teeth cleaning compound for comparative purposes) and Example 4.2 (for a teeth cleaning compound according to the invention) were in each case incorporated with a concentration of 1.2 wt. %, in relation to the overall weight of the resulting toothpaste into a respective toothpaste mass, containing a proportion of 65 wt. % sodium bicarbonate. […]

[3] = L-menthol given a strength of 100; cited from earlier work
[4] = on the philtrum fold (upper lip); cited from earlier work
cold receptor TRPM8 = cold receptor TRPM8 (Homo sapiens, UniProt Q7Z2W7); conditions: cited from earlier work
Chain of cold receptor TRPM8 (Q7Z2W7 whole entry): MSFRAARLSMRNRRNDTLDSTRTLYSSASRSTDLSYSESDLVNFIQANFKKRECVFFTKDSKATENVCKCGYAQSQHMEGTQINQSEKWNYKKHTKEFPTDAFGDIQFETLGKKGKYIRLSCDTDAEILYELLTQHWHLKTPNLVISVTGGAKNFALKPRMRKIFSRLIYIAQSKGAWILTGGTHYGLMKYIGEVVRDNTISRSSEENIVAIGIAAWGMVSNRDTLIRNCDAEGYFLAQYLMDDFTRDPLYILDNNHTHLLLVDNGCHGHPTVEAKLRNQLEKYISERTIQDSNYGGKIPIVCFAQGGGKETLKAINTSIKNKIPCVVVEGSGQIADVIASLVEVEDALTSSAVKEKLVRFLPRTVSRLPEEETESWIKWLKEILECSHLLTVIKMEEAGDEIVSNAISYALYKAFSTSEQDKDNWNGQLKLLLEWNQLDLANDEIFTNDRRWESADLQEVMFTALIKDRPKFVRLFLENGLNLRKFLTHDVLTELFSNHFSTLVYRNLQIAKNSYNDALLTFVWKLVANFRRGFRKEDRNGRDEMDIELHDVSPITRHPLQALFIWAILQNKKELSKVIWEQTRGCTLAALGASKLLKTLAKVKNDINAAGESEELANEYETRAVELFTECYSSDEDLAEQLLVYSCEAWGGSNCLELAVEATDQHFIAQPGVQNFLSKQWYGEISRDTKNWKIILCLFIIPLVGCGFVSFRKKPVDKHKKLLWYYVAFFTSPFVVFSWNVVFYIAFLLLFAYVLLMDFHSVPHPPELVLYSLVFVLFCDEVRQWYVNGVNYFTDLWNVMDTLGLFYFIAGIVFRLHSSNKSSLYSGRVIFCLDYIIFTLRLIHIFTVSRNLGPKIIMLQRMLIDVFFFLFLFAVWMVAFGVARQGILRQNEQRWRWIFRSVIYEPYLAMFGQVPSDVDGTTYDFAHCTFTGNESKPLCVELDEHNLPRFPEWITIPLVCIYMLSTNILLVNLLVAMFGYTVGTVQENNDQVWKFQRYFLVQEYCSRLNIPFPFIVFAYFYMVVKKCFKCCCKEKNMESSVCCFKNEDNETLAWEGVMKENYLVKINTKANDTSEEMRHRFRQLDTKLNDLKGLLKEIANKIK

[5] = Sensorial assessment of intensity and duration of the cooling sensation of freshness of toothpaste; assay type: in vivo; conditions: for intensity of coolness perceived: scale of 0 to 10, toothpaste with 1.2 wt. % flavoring composition of Example 1.2 containing 0.5 wt. % cooling agent; for duration of the cooling sensation of freshness: teeth cleaning compound / toothpaste, in words
Experimental: The proportion of menthane carboxylic acid-N-(4-methoxyphenyl)-amide (WS-12) in the 1st preparation of Example 1.2 was replaced by menthane-3-carboxylic acid-N-ethyl amide (WS-3).
The flavoring agent composition obtained was likewise incorporated into a standard toothpaste mass with a silicic acid base in a concentration of 1.2 wt. %, in relation to the overall weight of the resultant toothpaste.
as §1
The abscissa of FIG. 1 gives the time in minutes elapsing since cleaning of the teeth with the respective toothpaste.
The intensity of coolness perceived was rated on a scale of 0 to 10, with a value of “0” corresponding to the lowest or no intensity of coolness perceived and a value of “[…]” corresponding to the highest intensity of coolness perceived.

Row | Structure (SMILES) | bitter-sharp note of the menthol / bitter perception [2] | relative cooling strength compared with L-menthol [3] | intensity of coolness perceived ([5]; after 35 minutes) | duration of the cooling sensation of freshness [5] | further results
1 | COc1ccc(NC(=O)C2CC(C)CCC2C(C)C)cc1 (stereo not shown) [WS-12, menthane carboxylic acid-N-(4-methoxyphenyl)-amide] | significantly reduced | 150 | 3 | comparatively long-lasting | duration of cooling effect on the upper lip ([1]; remaining on the upper lip): up to half an hour; cooling effect compared with WS-5 ([1]; upper lip): lower than WS-5; solubility (Solubility of WS-12): relatively not readily soluble; cooling duration [4]: under one hour; effect on the TRPM8 cold receptor (cold receptor TRPM8): stronger effect than WS-5; effect on the TRPM8 cold receptor (cold receptor TRPM8; listed as menthane carboxylic acid-N-(4-methoxyphenyl)-amide): one of the strongest cooling substances; intensity of coolness perceived ([5]; after 60 minutes): ~1.5
2 | CCOC(=O)CNC(=O)C1CC(C)CCC1C(C)C [WS-5, N^α-(L-menthane carbonyl)-glycine ethyl ester] |  | 400 |  |  | 
3 | CC=Cc1ccc(OC)cc1 [anethole] | neutralized |  |  |  | 
4 | CC(C)[C@@H]1CC[C@@H](C)C[C@H]1O [L-menthol] |  | 100 |  |  | 
5 | CCNC(=O)C1CC(C)CCC1C(C)C [WS-3, L-menthane carboxylic acid-N-ethyl amide] | hardly reduced | 150 | 0 | only for a relatively short time | reduction or masking of the bitterness or sharpness caused by menthol ([2]; addition to a conventional teeth cleaning compound containing menthol): did not lead to a significant reduction
